Reference: article PMC9636434, “Discovery of small molecule agonists of the Relaxin Family Peptide Receptor 2” (Communications Biology, 2022)
Values joined by “and” are separate entries in the source; they are usually repeats but may differ in a detail not shown here. Identical values can stand only once. Like-named read-outs stand apart in the source and are kept apart here.

Experiments:
[1] = Pharmacokinetic study, single 30 mg/kg IP dose, plasma, liver and bone; format: in vivo, mouse; parameters: levels in plasma, liver, and bone: scale not given here; conditions: for Bone concentration / Liver concentration / Plasma concentration / concentration at 2 h / concentration at 12 h / concentration at 0.083 h / concentration at 0.25 h / concentration at 1 h: IP
Description: The concentration of compound in plasma, liver, and long bones was detected using liquid chromatography tandem mass spectrometry (LC-MS/MS). Samples were collected after a single intraperitoneal (IP) administration at 30 mg/kg, a single intravenous (IV) administration at 3 mg/kg, a single oral (PO) administration at 10 mg/kg, and a daily PO administration for 3 consecutive days at 10 mg/kg. The compound was formulated in 75% PEG300 + 25% of 40% aq. HPBCD for IV and PO administration and in 60% Phosal + 40% PEG300 for IP administration. All tissue samples were homogenized in water at a tissue weight to water volume ratio 1:3.
single dose IP administration. a Plasma, b liver and c bone profiles in female mice.
The actual concentration (ng/g) is the detected value (ng/mL) multiplied by 4. Drug
vehicle is 60% Phosal : 40% PEG300. 3 mice were used per time point. Results are
expressed as the mean ± SEM.

WT RXFP2 = molecular target: T1, WT RXFP2 (Homo sapiens, UniProt Q8WXD0); experiment: HTRF cAMP assay in HEK293T cells transiently transfected with WT RXFP2; format: cell-based; conditions: for Emax: HEK-293T
T1 construct: FLAG (N); expressed in transfected cells; host or cells: HEK293T (transient)
Description: Fig. 2 6641 is an allosteric agonist of RXFP2. a HEK-RXFP2 cells co-treated with serial dilutions of INSL3 B dimer antagonist and 30 nM INSL3 or 0.28 µM 6641. HTRF cAMP dose-response inhibition curves were normalized to activity without antagonist co-treatment as 0% inhibition. b HTRF cAMP assay in HEK293T cells transiently transfected with WT or chimeric receptors. Chimera RXFP2-1 contains the extracellular domain of RXFP2 and the transmembrane domain of RXFP1, while chimera RXFP1-2 contains the extracellular domain of RXFP1 and the transmembrane domain of RXFP2. For each receptor, cAMP response induced by INSL3 and 6641 was normalized to FSK (2 µM) as 100% efficacy and DMSO vehicle as 0% efficacy. Emax and EC50 were calculated using four parameter nonlinear fit dose-response curves. Results are expressed as mean ± SEM of 3 independent experiments. Diagrams of the chimeric receptors were produced using GPCRdb.org[58], [59].
Complementary RXFP2-1 and RXFP1-2 chimeric receptors were used to further investigate the involvement of the RXFP2 extracellular and transmembrane domains on 6641 activity. RXFP2-1 has the extracellular domain of RXFP2 and transmembrane domain of RXFP1, and RXFP1-2 is its complement.
The HTRF Gs dynamic cAMP assay kit (CisBio, Bedford, MA) was used to measure intracellular cAMP accumulation in HEK293T cells (ATCC, Manassas, VA)[56]. […] The cell stock was verified mycoplasma free and authenticated by ATCC. Transient transfection was accomplished by treating cells in a 6-well plate with a mixture of 2 μg plasmid and 6 μL Lipofectamine 2000 (Invitrogen, Waltham, MA) per manufacturer’s protocol and incubating overnight. For cAMP measurement in 96-well format, HEK293T cells stably transfected with human RXFP2 (HEK-RXFP2), human RXFP1 (HEK-RXFP1), mouse Rxfp1 (HEK-Rxfp1) or transiently transfected with human RXFP1-RXFP2 chimeric receptors were seeded between 7500 and 30,000 cells per well, depending on cell line responsiveness, in serum-free DMEM medium and incubated overnight at 37 °C, 5% CO2. After 18 h, cells were treated with a titration of compound, 2 μM forskolin, or DMSO vehicle. Control wells were also treated with a titration of INSL3 (Phoenix Pharmaceuticals, Burlingame, CA) or human recombinant relaxin 2 (Peprotech, Cranbury, NJ). For the RXFP2 antagonist experiment, cells were co-treated with 0.28 μM compound or 30 nM INSL3 and a titration of the INSL3 B dimer antagonist[38],[39]. For the INSL3 allosteric modulation experiment, cells were co-treated with 0.025, 0.0025, or 0.00025 μM of compound and a titration of INSL3. Cells were incubated for 1 h at 37 °C, 5% CO2, and then kit cAMP-d2 and anti-cAMP antibody were added per manufacturer protocol. Plates were incubated for 1 h at room temperature and the signal was read on a CLARIOstar plate reader (BMG Labtech, Ortenberg, Germany) at 665 and 620 nm emission wavelengths.

[2] = Time 0.083 h, individual values (1)-(3)
[3] = Time 0.25 h, individual values (1)-(3)
[4] = Time 0.5 h, individual values (1)-(3)
[5] = Time 1 h, individual values (1)-(3)
[6] = Time 2 h, individual values (1)-(3)
[7] = Time 4 h, individual values (1)-(3)
[8] = Time 8 h, individual values (1)-(3)
[9] = Time 12 h, individual values (1)-(3)
[10] = single 30 mg/kg IP, female mice

T1 sequence (Q8WXD0 whole entry): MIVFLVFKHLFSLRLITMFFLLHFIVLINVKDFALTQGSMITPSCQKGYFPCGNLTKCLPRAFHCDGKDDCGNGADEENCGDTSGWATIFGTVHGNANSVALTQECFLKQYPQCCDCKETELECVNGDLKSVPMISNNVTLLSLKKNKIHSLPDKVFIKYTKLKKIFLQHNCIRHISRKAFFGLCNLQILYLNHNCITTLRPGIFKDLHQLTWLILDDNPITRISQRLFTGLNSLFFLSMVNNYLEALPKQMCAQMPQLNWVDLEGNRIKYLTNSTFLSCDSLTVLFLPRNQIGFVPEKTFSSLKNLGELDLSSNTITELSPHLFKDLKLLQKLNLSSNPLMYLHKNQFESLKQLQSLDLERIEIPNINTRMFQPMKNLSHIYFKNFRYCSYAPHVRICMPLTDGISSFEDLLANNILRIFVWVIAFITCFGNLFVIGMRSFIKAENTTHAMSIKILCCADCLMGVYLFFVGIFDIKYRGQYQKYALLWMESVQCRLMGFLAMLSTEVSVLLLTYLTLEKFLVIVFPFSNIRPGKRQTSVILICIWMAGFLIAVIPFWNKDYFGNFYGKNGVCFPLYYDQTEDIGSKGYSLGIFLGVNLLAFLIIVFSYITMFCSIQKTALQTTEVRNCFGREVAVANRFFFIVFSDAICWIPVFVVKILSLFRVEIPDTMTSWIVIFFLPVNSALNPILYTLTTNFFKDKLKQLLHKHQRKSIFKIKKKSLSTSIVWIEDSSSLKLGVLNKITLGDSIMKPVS

**Q.** For O=C1Nc2ccc(-c3cc(C(F)(F)F)cc(C(F)(F)F)c3)cc2C(=O)N2CCN(C(=O)COc3ccc(OC(F)(F)F)cc3I)C[C@@H]12 [compound 6641], which Bone concentration [1, 2] is on record?
**A.** Its Bone concentration is 307 ng/g and 205 ng/g and 624 ng/g.

**Q.** What about the Liver concentration [1, 2] of the same compound?
**A.** Its Liver concentration is 1132 ng/g and 1016 ng/g.

**Q.** What about the Plasma concentration [1, 2] of the same compound?
**A.** The Plasma concentration was 42.7 ng/mL and 44.4 ng/mL.

**Q.** What about the Bone concentration [1, 3] of the same compound?
**A.** Its Bone concentration is 618 ng/g and 42.7 ng/g and 69 ng/g.

**Q.** And the Liver concentration [1, 3]?
**A.** Its Liver concentration is 1852 ng/g and 1212 ng/g.

**Q.** What about the Plasma concentration [1, 3] of the same compound?
**A.** Its Plasma concentration is 135 ng/mL and 133 ng/mL.

**Q.** What about the Bone concentration [1, 4] of the same compound?
**A.** Its Bone concentration is 79.8 ng/g and 96 ng/g and 167 ng/g.

**Q.** What about the Liver concentration [1, 4] of the same compound?
**A.** Its Liver concentration is 2324 ng/g and 2784 ng/g.

**Q.** What about the Plasma concentration [1, 4] of the same compound?
**A.** Its Plasma concentration is 259 ng/mL and 440 ng/mL.

**Q.** What about the Bone concentration [1, 5] of the same compound?
**A.** Its Bone concentration is 204 ng/g and 273 ng/g and 532 ng/g.

**Q.** What about the Liver concentration [1, 5] of the same compound?
**A.** The Liver concentration was 4720 ng/g and 3880 ng/g.

**Q.** What about the Plasma concentration [1, 5] of the same compound?
**A.** The Plasma concentration was 507 ng/mL and 673 ng/mL.

**Q.** And the Bone concentration [1, 6]?
**A.** The Bone concentration was 346 ng/g and 472 ng/g.

**Q.** And the Liver concentration [1, 6]?
**A.** Its Liver concentration is 10000 ng/g and 4520 ng/g and 5600 ng/g.

**Q.** What about the Plasma concentration [1, 6] of the same compound?
**A.** Its Plasma concentration is 819 ng/mL and 1140 ng/mL.

**Q.** What about the Bone concentration [1, 7] of the same compound?
**A.** The Bone concentration was 708 ng/g and 1566 ng/g and 1740 ng/g.

**Q.** And the Liver concentration [1, 7]?
**A.** The Liver concentration was 15760 ng/g and 16960 ng/g.

**Q.** What about the Plasma concentration [1, 7] of the same compound?
**A.** The Plasma concentration was 2340 ng/mL and 4780 ng/mL and 5300 ng/mL.

**Q.** And the Bone concentration [1, 8]?
**A.** The Bone concentration was 3162 ng/g and 948 ng/g and 3258 ng/g.

**Q.** And the Liver concentration [1, 8]?
**A.** Its Liver concentration is 19080 ng/g and 9320 ng/g and 24920 ng/g.

**Q.** And the Plasma concentration [1, 8]?
**A.** The Plasma concentration was 3040 ng/mL and 3010 ng/mL.

**Q.** And the Bone concentration [1, 9]?
**A.** Its Bone concentration is 1716 ng/g and 1458 ng/g.

**Q.** And the Liver concentration [1, 9]?
**A.** Its Liver concentration is 18480 ng/g and 15600 ng/g.

**Q.** And the Plasma concentration [1, 9]?
**A.** Its Plasma concentration is 3930 ng/mL and 2630 ng/mL.

**Q.** And the concentration at 2 h ([1]; female, C57BL/6 J, mouse, bone, ip, 30 mg/kg, Time 2 h, individual values (1)-(3), read-out: Bone concentration)?
**A.** Its concentration at 2 h is 492 ng/g.

**Q.** And the concentration at 12 h ([1]; female, C57BL/6J, mouse, bone, ip, 30 mg/kg, Time 12 h, individual values (1)-(3), read-out: Bone concentration)?
**A.** The concentration at 12 h was 2830 ng/g.

**Q.** What about the concentration at 0.083 h ([1]; female, C57BL/6J, mouse, liver, ip, 30 mg/kg, Time 0.083 h, individual values (1)-(3), read-out: Liver concentration) of the same compound?
**A.** The concentration at 0.083 h was 1060 ng/g.

**Q.** And the concentration at 0.25 h ([1]; female, C57BL/6J, mouse, liver, ip, 30 mg/kg, Time 0.25 h, individual values (1)-(3), read-out: Liver concentration)?
**A.** The concentration at 0.25 h was 1800 ng/g.

**Q.** What about the concentration at 1 h ([1]; female, C57BL/6J, mouse, liver, ip, 30 mg/kg, Time 1 h, individual values (1)-(3), read-out: Liver concentration) of the same compound?
**A.** The concentration at 1 h was 4920 ng/g.

**Q.** And the concentration at 12 h ([1]; female, C57BL/6J, mouse, liver, ip, 30 mg/kg, Time 12 h, individual values (1)-(3), read-out: Liver concentration)?
**A.** The concentration at 12 h was 13600 ng/g.

**Q.** And the concentration at 0.5 h ([1]; female, C57BL/6J, mouse, liver, ip, 30 mg/kg, Time 0.5 h, individual values (1)-(3))?
**A.** Its concentration at 0.5 h is 3040 ng/g.

**Q.** What about the concentration at 4 h ([1]; female, C57BL/6J, mouse, liver, ip, 30 mg/kg, Time 4 h, individual values (1)-(3)) of the same compound?
**A.** The concentration at 4 h was 11000 ng/g.

**Q.** And the concentration at 0.083 h ([1]; female, C57BL/6J, mouse, plasma, ip, 30 mg/kg, Time 0.083 h, individual values (1)-(3), read-out: Plasma concentration)?
**A.** The concentration at 0.083 h was 60.9 ng/mL.

**Q.** What about the concentration at 0.25 h ([1]; female, C57BL/6J, mouse, plasma, ip, 30 mg/kg, Time 0.25 h, individual values (1)-(3), read-out: Plasma concentration) of the same compound?
**A.** The concentration at 0.25 h was 132 ng/mL.

**Q.** And the concentration at 1 h ([1]; female, C57BL/6J, mouse, plasma, ip, 30 mg/kg, Time 1 h, individual values (1)-(3), read-out: Plasma concentration)?
**A.** The concentration at 1 h was 627 ng/mL.

**Q.** What about the concentration at 2 h ([1]; female, C57BL/6J, mouse, plasma, ip, 30 mg/kg, Time 2 h, individual values (1)-(3), read-out: Plasma concentration) of the same compound?
**A.** The concentration at 2 h was 1160 ng/mL.

**Q.** And the concentration at 12 h ([1]; female, C57BL/6J, mouse, plasma, ip, 30 mg/kg, Time 12 h, individual values (1)-(3), read-out: Plasma concentration)?
**A.** The concentration at 12 h was 2750 ng/mL.

**Q.** What about the concentration at 8 h ([1]; female, C57BL/6J, mouse, plasma, ip, 30 mg/kg, Time 8 h, individual values (1)-(3)) of the same compound?
**A.** Its concentration at 8 h is 2190 ng/mL.

**Q.** And the “duration of stable levels in plasma, liver, and bone” value [1, 10]?
**A.** The value was “at least 12 h”.

**Q.** What about the “levels in plasma, liver, and bone” value [1, 10] of the same compound?
**A.** The value was “single/double digit”.

**Q.** And the EC50 (WT RXFP2; 6641, individual experiments, read-out: EC50 (1)-(3))?
**A.** The EC50 was 4.7 nM and 28 nM and 3.17 nM.

**Q.** What about the EC50 (WT RXFP2; 6641, mean (± SEM) of 3, read-out: EC50 (AVERAGE)) of the same compound?
**A.** The EC50 was 12 nM.

**Q.** And the Emax (WT RXFP2; individual experiments, FSK (2 µM) = 100% efficacy, DMSO = 0%, read-out: Emax (1)-(3))?
**A.** Its Emax is 91.1%.

**Q.** And the Emax (WT RXFP2; mean (± SEM) of 3, FSK (2 µM) = 100% efficacy, read-out: Emax (AVERAGE))?
**A.** The Emax was 86.3%.

**Q.** What about the “Emax (1)-(3)” value (WT RXFP2; individual experiments, FSK (2 µM) = 100% efficacy, DMSO = 0%) of the same compound?
**A.** The value was 79.79% and 88%.
